In ChEMBL document CHEMBL1201862, “PubChem BioAssay data set” (2004):
The source made the active and inactive calls. Cut-off read from the data, not from the text of the source, for most assays here: actives have a measured EC50 and inactives only a lower limit.

Experiments:
[1] = target: T1, Apoptotic protease-activating factor 1 (Homo sapiens, UniProt O14727); assay type: functional
T1 sequence (O14727 whole entry): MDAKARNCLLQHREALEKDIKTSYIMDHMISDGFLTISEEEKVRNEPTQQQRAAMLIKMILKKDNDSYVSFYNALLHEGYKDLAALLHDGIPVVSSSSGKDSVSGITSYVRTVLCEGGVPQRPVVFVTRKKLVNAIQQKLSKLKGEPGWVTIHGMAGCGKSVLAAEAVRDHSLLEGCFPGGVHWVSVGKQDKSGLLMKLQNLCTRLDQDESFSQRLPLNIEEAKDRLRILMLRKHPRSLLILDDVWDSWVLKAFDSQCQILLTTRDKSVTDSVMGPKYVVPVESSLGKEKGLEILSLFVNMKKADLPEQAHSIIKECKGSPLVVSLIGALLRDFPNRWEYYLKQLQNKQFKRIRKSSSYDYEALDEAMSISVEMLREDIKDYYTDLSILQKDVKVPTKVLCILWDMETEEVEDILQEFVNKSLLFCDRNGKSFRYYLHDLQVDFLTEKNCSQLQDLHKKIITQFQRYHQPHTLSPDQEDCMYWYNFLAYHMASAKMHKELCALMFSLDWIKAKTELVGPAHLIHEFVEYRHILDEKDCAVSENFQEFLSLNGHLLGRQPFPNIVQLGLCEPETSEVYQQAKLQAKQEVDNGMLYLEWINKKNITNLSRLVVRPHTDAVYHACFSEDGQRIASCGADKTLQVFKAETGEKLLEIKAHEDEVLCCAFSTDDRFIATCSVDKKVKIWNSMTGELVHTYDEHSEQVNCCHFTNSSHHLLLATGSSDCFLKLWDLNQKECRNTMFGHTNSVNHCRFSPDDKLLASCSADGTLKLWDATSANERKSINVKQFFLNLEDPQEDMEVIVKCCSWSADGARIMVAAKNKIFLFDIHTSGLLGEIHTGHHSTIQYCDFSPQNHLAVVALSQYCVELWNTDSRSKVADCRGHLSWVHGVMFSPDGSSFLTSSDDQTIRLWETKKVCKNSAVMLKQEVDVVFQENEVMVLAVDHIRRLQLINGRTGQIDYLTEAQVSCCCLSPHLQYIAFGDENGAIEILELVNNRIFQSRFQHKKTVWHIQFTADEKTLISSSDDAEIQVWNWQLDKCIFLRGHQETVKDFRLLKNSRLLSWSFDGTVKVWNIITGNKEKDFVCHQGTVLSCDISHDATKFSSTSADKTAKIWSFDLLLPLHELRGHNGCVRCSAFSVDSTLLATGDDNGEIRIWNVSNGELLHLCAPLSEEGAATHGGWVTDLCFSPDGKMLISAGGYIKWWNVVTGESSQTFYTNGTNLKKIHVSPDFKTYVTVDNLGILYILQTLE

[2] = NIH-3T3 fibroblast cytotoxicity, dose response, cytotoxicity control, cell-based, fluorescence, Alamar Blue, secondary assay (AID 2327); assay type: functional;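 note: NIH-3T3 mouse fibroblasts cultured with fluconazole at 8 µg/mL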
[3] = fluconazole-exposed Candida albicans growth modulators – fluorescence, retest, confirmation (AID 2467); assay type: functional, cell-based
[4] = target: T2, Serine/threonine-protein phosphatase (Candida dubliniensis (strain CD36 / CBS 7987 / NCPF 3949 / NRRLY-17841) (Yeast), UniProt B9W6M3); test: blockers of CaCl2-induced CDRE-lacZ signaling – S. cerevisiae, luminescence, secondary, dose response (AID 2388); assay type: functional, cell-based;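 note: yeast reporter cells carrying a calcineurin-responsive lacZ construct stimulated with calcium chloride; luminescent beta-galactosidase reporter signal in whole cells rather than isolated phosphatase activity; potency for inhibition where a drop in reporter signal means calcineurin blockade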
T2 sequence (B9W6M3 whole entry): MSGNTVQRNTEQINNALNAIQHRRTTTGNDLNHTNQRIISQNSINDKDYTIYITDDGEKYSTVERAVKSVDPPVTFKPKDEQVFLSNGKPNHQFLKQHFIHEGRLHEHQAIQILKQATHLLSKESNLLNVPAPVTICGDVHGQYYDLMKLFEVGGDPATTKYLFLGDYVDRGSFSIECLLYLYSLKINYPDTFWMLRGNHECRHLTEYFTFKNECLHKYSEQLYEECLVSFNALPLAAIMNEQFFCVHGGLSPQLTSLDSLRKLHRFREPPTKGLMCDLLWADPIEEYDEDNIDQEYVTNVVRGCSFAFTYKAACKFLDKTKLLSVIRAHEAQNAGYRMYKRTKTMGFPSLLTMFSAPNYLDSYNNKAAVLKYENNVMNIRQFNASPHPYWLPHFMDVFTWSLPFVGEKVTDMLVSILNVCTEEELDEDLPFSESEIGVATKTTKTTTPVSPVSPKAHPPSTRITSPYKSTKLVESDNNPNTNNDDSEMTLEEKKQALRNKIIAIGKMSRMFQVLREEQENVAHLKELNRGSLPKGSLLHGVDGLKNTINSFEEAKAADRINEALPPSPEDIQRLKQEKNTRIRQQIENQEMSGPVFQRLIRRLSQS

[5] = target: ATP-dependent molecular chaperone HSP82 (Candida albicans (strain WO-1) (Yeast), UniProt C4YTQ8); test: steroid-induced GRE reporter decrease in yeast – S. cerevisiae, luminescence, Hsp90 inhibitor project, dose response (AID 2400); assay type: functional, cell-based;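 note: beta-galactosidase luminescence from glucocorticoid response element reporter as proxy for Hsp90 function; inhibitor potency where signal loss means Hsp90 inhibition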
Vero = test: viability of Vero cells under compound – cytotoxicity control for flavivirus capping enzyme inhibitors (AID 588742); assay type: functional; conditions: Chlorocebus sabaeus
Genome polyprotein = Genome polyprotein (dengue virus type 2, UniProt P29990); test: flavivirus cap methylation enzyme inhibition – biochemical, confirmation dose response, primary screen (AID 588689); assay type: functional
[6] = viability loss in THP-1 monocytes – THP-1 cells, cytotoxicity control for Vif-APOBEC3G degradation inhibitor project, dose response (AID 1117359); assay type: functional; conditions: THP-1
[7] = target: T3, Replicative DNA helicase DnaB (Mycobacterium tuberculosis, UniProt P9WMR3); test: DnaB intein splicing inhibitors, dose response, biochemical, cell-free fluorescence (AID 449749); assay type: functional
T3 sequence (P9WMR3 whole entry): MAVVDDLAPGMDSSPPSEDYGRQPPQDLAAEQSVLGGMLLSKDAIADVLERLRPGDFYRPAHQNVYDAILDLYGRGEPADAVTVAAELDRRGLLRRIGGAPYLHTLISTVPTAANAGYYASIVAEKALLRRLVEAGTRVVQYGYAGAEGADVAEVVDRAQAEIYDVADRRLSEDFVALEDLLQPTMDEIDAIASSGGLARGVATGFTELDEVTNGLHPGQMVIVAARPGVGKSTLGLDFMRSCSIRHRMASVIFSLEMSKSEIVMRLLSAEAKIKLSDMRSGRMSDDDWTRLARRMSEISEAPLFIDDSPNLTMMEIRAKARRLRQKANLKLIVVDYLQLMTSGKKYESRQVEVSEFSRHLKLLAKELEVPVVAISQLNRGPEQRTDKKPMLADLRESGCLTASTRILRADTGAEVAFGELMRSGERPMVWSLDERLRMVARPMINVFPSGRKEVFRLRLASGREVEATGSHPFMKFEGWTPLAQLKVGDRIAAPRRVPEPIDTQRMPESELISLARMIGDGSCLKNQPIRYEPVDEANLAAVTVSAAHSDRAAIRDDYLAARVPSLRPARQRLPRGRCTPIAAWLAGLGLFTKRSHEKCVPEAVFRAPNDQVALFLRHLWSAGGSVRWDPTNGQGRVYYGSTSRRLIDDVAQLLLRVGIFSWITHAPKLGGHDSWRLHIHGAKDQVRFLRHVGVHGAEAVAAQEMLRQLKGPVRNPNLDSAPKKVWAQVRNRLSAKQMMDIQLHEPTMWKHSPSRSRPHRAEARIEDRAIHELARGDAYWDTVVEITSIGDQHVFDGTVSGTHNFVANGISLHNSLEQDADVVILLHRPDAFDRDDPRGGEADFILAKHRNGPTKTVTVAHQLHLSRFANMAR

Protein RecA = target: T4, Protein RecA (Mycobacterium tuberculosis, UniProt P9WHJ3); test: Fluorescence Cell-Free Homogeneous Dose Retest to Identify Inhibitors of RecA-Intein Splicing Activity. [Related pubchem assays (depositor defined):AID2097, AID2223, AID489010, AID492950]; assay type: functional
T4 sequence (P9WHJ3 whole entry): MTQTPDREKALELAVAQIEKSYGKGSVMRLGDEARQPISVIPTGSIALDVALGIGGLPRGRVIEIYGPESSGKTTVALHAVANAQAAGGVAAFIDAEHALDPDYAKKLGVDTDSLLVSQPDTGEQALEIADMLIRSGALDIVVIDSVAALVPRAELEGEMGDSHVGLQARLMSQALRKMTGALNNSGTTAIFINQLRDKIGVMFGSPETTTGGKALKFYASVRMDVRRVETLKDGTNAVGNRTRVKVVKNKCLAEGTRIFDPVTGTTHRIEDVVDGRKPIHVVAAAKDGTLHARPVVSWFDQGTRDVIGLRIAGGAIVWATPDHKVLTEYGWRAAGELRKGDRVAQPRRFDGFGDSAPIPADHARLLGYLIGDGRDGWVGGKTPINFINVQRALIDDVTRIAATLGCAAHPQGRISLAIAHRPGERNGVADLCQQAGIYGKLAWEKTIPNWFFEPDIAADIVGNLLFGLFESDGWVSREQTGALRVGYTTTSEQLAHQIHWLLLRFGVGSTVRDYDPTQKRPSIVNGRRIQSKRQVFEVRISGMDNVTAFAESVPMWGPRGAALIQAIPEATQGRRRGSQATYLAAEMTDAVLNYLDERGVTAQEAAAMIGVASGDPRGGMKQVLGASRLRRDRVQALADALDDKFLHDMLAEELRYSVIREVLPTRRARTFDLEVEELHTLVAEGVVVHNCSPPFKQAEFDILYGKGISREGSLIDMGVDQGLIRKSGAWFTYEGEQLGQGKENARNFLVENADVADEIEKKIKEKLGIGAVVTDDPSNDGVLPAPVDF

Caspase-6 = target: T5, Caspase-6 (Homo sapiens, UniProt P55212); test: inhibition of CASP6 peptide cleavage – biochemical, VEID-R110 fluorescence, cherry-pick, dose response (AID 720632)
T5 sequence (P55212 whole entry): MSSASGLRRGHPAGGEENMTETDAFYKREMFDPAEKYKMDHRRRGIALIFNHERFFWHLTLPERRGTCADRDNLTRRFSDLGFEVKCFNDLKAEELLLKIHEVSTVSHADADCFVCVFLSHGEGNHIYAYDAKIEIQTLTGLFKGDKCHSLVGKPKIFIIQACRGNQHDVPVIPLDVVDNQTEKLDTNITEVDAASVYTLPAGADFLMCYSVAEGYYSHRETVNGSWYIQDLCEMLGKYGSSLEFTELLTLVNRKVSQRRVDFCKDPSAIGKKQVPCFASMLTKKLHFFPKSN

[8] = target: T6, Tyrosyl-DNA phosphodiesterase 2 (Homo sapiens, UniProt O95551); test: potency against TDP2 phosphodiesterase activity – biochemical, epi absorbance, IC50, dose response (AID 743297)
T6 sequence (O95551 whole entry): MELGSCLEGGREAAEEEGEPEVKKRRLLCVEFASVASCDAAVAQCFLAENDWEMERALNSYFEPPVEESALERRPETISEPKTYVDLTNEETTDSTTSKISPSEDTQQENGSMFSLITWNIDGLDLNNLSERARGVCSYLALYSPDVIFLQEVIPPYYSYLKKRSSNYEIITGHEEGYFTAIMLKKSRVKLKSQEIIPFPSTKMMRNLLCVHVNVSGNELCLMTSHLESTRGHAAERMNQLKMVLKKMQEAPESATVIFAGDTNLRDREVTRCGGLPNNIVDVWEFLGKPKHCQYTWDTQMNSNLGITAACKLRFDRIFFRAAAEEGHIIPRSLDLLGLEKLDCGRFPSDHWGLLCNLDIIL

BJ [9] = test: BJ-TERT fibroblast viability loss – cell-based, RAS-independent, luminescence, dose response (AID 1933); assay type: functional; conditions: Homo sapiens
BJ [10] = test: cells; assay type: functional, cell-based; conditions: Homo sapiens
BJ [11] = test: BJ-TERT-LT-ST fibroblast viability loss – cell-based, RAS-independent, luminescence, dose response (AID 1935); assay type: functional; conditions: Homo sapiens;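 note: BJ fibroblasts immortalized with TERT plus LT and ST oncogenes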
[12] = DRD fibroblast viability loss – cell-based, non-viral oncogenic, luminescence, dose response (AID 1934); assay type: functional; conditions: Homo sapiens
BJ [13] = test: growth inhibition of engineered Ras-driven BJ cells – cell-based, alamar blue fluorescence, cherrypicked samples, dose response (AID 2631); assay type: functional; conditions: Homo sapiens;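 note: confirmatory dose-response assay in RAS-dependent BJ fibroblasts engineered with TERT, LT and ST, with cytotoxicity read by fluorescence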

Chain of ATP-dependent molecular chaperone HSP82 (C4YTQ8 whole entry): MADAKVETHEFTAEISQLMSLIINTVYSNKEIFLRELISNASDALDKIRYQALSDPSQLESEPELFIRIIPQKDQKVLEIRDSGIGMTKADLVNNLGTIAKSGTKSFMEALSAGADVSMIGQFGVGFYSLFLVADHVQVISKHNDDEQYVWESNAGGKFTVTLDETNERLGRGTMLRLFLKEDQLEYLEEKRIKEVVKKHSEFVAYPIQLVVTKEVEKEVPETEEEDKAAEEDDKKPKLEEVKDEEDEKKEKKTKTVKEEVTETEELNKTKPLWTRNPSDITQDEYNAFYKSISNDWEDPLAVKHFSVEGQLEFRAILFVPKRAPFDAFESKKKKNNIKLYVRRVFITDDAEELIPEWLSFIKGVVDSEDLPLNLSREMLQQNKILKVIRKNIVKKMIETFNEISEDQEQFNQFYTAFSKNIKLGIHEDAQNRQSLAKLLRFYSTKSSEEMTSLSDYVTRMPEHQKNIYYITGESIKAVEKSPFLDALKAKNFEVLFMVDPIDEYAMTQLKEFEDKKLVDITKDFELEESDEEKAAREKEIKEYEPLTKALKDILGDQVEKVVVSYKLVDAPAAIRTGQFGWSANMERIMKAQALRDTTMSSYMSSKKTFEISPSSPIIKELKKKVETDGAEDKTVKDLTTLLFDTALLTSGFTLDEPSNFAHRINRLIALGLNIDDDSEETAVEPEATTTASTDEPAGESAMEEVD
Chain of Genome polyprotein (P29990 2492-3391 limits assumed): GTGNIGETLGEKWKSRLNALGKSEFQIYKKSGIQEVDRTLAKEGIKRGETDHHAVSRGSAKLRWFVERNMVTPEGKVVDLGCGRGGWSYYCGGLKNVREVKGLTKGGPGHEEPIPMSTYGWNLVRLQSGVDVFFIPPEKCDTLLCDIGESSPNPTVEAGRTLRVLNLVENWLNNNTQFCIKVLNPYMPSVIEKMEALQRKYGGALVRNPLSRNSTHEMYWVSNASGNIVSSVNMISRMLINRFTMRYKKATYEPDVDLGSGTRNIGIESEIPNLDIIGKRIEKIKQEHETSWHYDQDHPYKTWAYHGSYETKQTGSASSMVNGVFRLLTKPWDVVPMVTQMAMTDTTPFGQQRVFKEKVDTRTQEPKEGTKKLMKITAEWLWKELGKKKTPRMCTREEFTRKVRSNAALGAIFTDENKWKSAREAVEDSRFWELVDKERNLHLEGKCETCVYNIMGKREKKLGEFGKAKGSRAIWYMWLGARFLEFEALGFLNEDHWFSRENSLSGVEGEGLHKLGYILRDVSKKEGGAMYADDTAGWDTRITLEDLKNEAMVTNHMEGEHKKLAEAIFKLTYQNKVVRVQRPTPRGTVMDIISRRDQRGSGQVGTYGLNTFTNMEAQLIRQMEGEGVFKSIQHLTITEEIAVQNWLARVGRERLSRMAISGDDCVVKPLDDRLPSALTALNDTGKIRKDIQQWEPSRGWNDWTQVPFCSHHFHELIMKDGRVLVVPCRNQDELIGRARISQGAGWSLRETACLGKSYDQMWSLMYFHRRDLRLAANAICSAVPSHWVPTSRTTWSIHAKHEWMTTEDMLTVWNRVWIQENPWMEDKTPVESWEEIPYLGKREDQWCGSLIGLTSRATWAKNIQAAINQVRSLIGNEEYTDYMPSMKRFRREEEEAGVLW

SMILES | IC50 [1] | EC50 [2] | EC50 [3] | EC50 [4] | EC50 [5] | other results
Cc1nn2c(-c3ccncc3)nnc2c2ccccc12 | 5.15 µM (active) | – | – | – | – | –
CC1=C(CC[C@@H](C)CO)O[C@H]2C[C@H]3[C@@H]4CC[C@H]5C[C@@H](O)CC[C@]5(C)[C@H]4CC(=O)[C@]3(C)[C@@H]12 | – | > 150 µM (inactive) | 383 nM (active) | > 180 µM (inactive) | > 150 µM (inactive) | –
O=C(/C(=N/N=C/c1ccc(O)c(O)c1O)c1ccccc1)c1ccccc1 | – | > 150 µM (inactive) | 4040 nM (active) | > 180 µM (inactive) | 5.97 µM (active) | CC50 (Vero): 9.15 µM (active); IC50 (Genome polyprotein): 50.1 µM (active); CC50 [6]: 16.6 µM (active)
COc1ccc(NC2=C(NCCO)C(=O)c3ccccc3C2=O)cc1 | 29.4 µM (active) | – | – | – | – | AC50 [7]: 31.4 µM (active); EC50 (Protein RecA): 21.9 µM (active); AC50 (Caspase-6): 6.05 µM (active); IC50 [8]: 88.7 µM (inactive)
CC(C)(C)c1ccc(Cc2nnc(S)nc2O)cc1 | – | > 160 µM (inactive) | 368 nM (active) | 20.2 µM (active) | 9.48 µM (active) | –
Cc1cccc(OCC(=O)Nc2ccc(C(=O)NCc3cccnc3)cc2)c1 | – | – | – | – | – | EC50 (BJ [9]): > 150 µM (not active); EC50 (BJ [10]): 8.97 µM (inconclusive); EC50 (BJ [11]): > 150 µM (inconclusive); EC50 [12]: > 150 µM (not active); EC50 (BJ [13]): 17.3 µM (active)
